Experimental data reported in PubChem BioAssay AID449762 (Southern Research Specialized Biocontainment Screening …, 2010).
Results filed as inconclusive are left out.

Test system: M. tuberculosis H37Rv growth inhibition, 7H9 media
Assay: M. tuberculosis growth inhibition, HTS (AID 449762);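 note: bacterial growth assessed after seven days of incubation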
Conditions: for IC90: measured here: IC90 growth inhibition

Structure (SMILES)	IC50 [µM]	IC90 [µM]
CCN1CSC(=S)N(Cc2ccccc2)C1	10.5	24.1
Cc1ccc(C(=O)Nc2cccc(C(F)(F)F)c2)cc1Nc1ncnc2nc[nH]c12	50	> 100
CN(c1ccccc1)c1ccc(/C=C/[N+](=O)[O-])cc1	8.97	16.9
Cc1ccc(C#CC[N+]2(CC#Cc3ccc(C)cc3)CCCCC2)cc1	12.7	14.4
CCCCN(C)S(=O)(=O)c1ccc(C(=O)Nc2nnc(-c3ccco3)o2)cc1	8.02	21.2
C(=C\c1ccccc1)/C=N/Nc1nc2ccccc2s1	–	> 100
CCc1ccc(N=CC23c4ccccc4C(c4ccccc42)C2C(=O)N(c4ccc(OC)cc4)C(=O)C23)cc1 (stereo not drawn)	53.1	> 100
Nc1ccc2cc(Br)ccc2c1	51.8	84.9
COc1ccc(NC(=O)CSC2CCCCC2)cc1	35.2	> 100
CNc1ncnc2c1ncn2[C@@H]1O[C@H](CO)[C@@H](O)[C@H]1O	2.68	5.73
CN(Cc1ccco1)c1ncnc2ccc(-c3ccc4c(ccn4C)c3)cc12	16.9	44.9
CCCCCCC#Cc1ccc2c(c1)COc1c3ccccc3nn1-2	93.8	> 100
CCCC[C@@H](CN[C@H](C)CNC)NCC1CCC(C(C)(C)C)CC1 (stereo partly drawn)	18	22.7
CSC1=NC(C)(C)C=C(/C=C/c2ccc(Cl)cc2)N1	21.5	44.5
c1ccc(CN2CCN(CCCNc3ccc4nnc(-c5ccccc5)n4n3)CC2)cc1	19.4	24.7
Nc1ccc2c(c1)Cc1ccccc1-2	–	> 100
CCSc1ccc2c(c1)N(CCCN1CCN(C)CC1)c1ccccc1S2	19.1	26.5
CCc1ccc(N=C2NC(=O)/C(=C/c3cc(OC)c(O)c(OC)c3)S2)cc1	33.2	> 100
CCCCCCOC(=O)C(C#N)c1nc2ccccc2nc1N1CCN(CC)CC1 (stereo not drawn)	20.1	29.7
NNC(=S)Nc1ccccc1Cl	24.4	27.8
CCCCCCCCNC(=O)CCNC(=O)c1ccc(C(C)(C)C)cc1	35.3	44.6
CCOC(=O)N/N=C(/C)c1ccc([N+](=O)[O-])o1	3.86	11.8
Cn1cc(/C=C2\C(=O)NC(=O)N(c3ccccc3)C2=O)c2ccccc21	10.7	24.2

Structure (SMILES)	IC50 [µM]	IC90 [µM]
COC(=O)c1c(NC(=O)CCl)sc(C(=O)N2CCOCC2)c1C	2.19	5.65
Cc1nn(-c2ccccc2)c(N)c1C(c1ccc(C(C)C)cc1)c1c(C)nn(-c2ccccc2)c1N	20.4	27.1
FC(F)(F)c1ccc(Nc2nnnc3ccccc23)cc1	90.2	99.6
COC(=O)c1ccc2c(=O)[nH]c(CSc3nc(C)cs3)nc2c1	69	> 100
COc1ccccc1/C=C/C1=NC(=C\C=C/c2ccccc2)/C(=O)O1	–	> 100
C=CCn1cccc(/C=C/C(=O)c2ccc(C(C)(C)C)cc2)c1=S	27.8	56.5
O=C1c2ccccc2CC1Sc1nnc(-c2ccncc2)o1 (stereo not drawn)	20.6	30
CC(C(Sc1ccccc1N)c1ccccc1)[N+](=O)[O-] (stereo not drawn)	19.4	> 100
COC(=O)c1ccc(COC(=O)CCc2nc(-c3ccccc3)c(-c3ccccc3)o2)cc1	21.5	> 100
CCCCn1nc(C(=O)Nc2ccccc2N2CCCC2)c2ccccc2c1=O	11.8	> 100
CCN(CC)C(=O)[C@H]1CC(CC(=O)NCC23CC4CC(CC(C4)C2)C3)C(=O)N2CCc3c([nH]c4ccccc34)[C@]12C (stereo partly drawn)	18.3	24.8
Cc1ccc(NC(=O)C2C3/C=C\CCCCC32)cc1C (stereo not drawn)	2.87	3.29
Cc1ccc2c(c1)C1C[N+](C)(CC(=O)c3ccc(Cl)cc3Cl)CCC1N2C(=O)c1ccc(F)cc1 (stereo not drawn)	23.9	27.1
COc1ccc(OCc2cccc(C(=O)Nn3cc([N+](=O)[O-])cn3)c2)cc1	9.92	36.5
CN(C(=O)COC(=O)c1ccc([N+](=O)[O-])cc1Cl)C1CCCCC1	12.8	65.6
CC1=NN(c2ccc(C)c(C)c2)C(=O)/C1=C\C=C\c1ccc([N+](=O)[O-])o1	3.14	15.5
CCc1cccc2c(=O)c(C(=O)N3CCOCC3)c[nH]c12	6.62	14.2
COc1ccc(NCc2nnc(SCC(=O)c3ccc(OC)cc3)o2)cc1	7.11	13.4
CCOc1cc(C=O)cc(N=Nc2cccc([N+](=O)[O-])c2)c1O	3.98	11.6
CCCCCCSc1nsc(NC(=O)CC(C)C)n1	–	> 100
CCCCCCCCCCOC(=O)Cn1c(COc2ccc(Cl)cc2)[n+](C)c2ccccc21	11.8	13.3
CC(=O)O[C@H]1C[C@@]2(C)[C@@H](C[C@@H](O)[C@H]3[C@@]4(C)CC[C@@H](O)[C@@H](C)[C@@H]4CC[C@@]32C)/C1=C(\CCC=C(C)C)C(=O)O	1.6	4.42
c1ccc2c(c1)ncn2CCCCOc1ccc2c(c1)CCC2	22.8	25.7

Structure (SMILES)	IC50 [µM]	IC90 [µM]
CN(C)c1ccc(CNc2nc(-c3ccccc3)nn2S(C)(=O)=O)cc1	12	13.8
CCC(C)(C)c1ccc(OCCCC[n+]2ccc(C)cc2)c(C(C)(C)CC)c1	10.2	15
COc1ccccc1-c1cc(C(=O)NC2CCN(C)CC2)c2ccc(Cl)c(C)c2n1	70.9	95
CCOc1ccc(-c2cc(C(=O)NCCCn3ccnc3)c3cc(Br)ccc3n2)cc1	24.1	27.4
CCCCCc1ccc(S(=O)(=O)NCCc2ccncc2)cc1	34.1	42.8
O=C(OCC(=O)N1CCN(c2ccccc2)CC1)c1cnc(Cl)c(Cl)c1	20	41.7
O=c1[nH][nH]c(-c2ccccc2O)c1C(C[N+](=O)[O-])c1cccc(Cl)c1 (stereo not drawn)	74.6	> 100
Cc1ccc(CN2C3CCCC2CC(NC(=S)NCc2ccccc2)C3)cc1 (stereo not drawn)	45.8	52.4
COc1cc(NC(=O)c2cccs2)c(C(=O)OCC(=O)NCc2ccco2)cc1OC	23.9	> 100
O=S(=O)(Nc1ccn(-c2ccccc2)n1)c1ccc(Br)cc1	95.4	> 100
c1cc(Nc2cccc3nccnc23)c2nccnc2c1	9.75	23.2
O=C(CCl)Nc1sccc1C(=O)c1ccccc1	< 0.2	1.22
CCC1CSC(Nc2ccc(C(=O)/C=C/c3cccc(C)c3)cc2)=N1 (stereo not drawn)	18.9	27.3
N#CCn1c(CCl)nc2ccccc2c1=O	5.21	17.4
Cc1ccc(NC(=O)c2cnc(SCC(=O)NCC3CCCO3)n(C)c2=O)cc1C (stereo not drawn)	9.73	35.1
CC[n+]1c(/C=C/N(C)c2ccccc2)n(-c2ccccc2)c2ccc(-c3nc4ccccc4s3)cc21	0.87	1.27
CCOc1ccc(-n2c(O)c(/C=N/Nc3nnc(C)c(=O)[nH]3)c3ccccc3c2=O)cc1	11.3	> 100
O=C(Nc1ccc(OCC(F)(F)C(F)F)c(C(F)(F)F)c1)c1ccc(Cl)cc1	35.6	47.1
CCCCn1nc(C(=O)N[C@@H](CCSC)c2nc3ccccc3[nH]2)c2ccccc2c1=O	53	78.5
Cc1ccc(Cn2c(C(CO)Nc3nc(-c4ccc(F)cc4)cs3)nc3ccccc32)cc1 (stereo not drawn)	42.1	60.2
CCn1cc([N+](=O)[O-])c(C(=O)N2N=C(c3ccc4ccccc4c3)CC2c2ccccc2O)n1 (stereo not drawn)	49.6	> 100
O=C(c1cc2ccccc2o1)N1CCN(S(=O)(=O)c2ccc(Cl)s2)CC1	4.01	13.1
Cc1cc(C(=O)COC(=O)C2=COCCO2)c(C)n1-c1cccc(F)c1	4.83	> 100

Structure (SMILES)	IC50 [µM]	IC90 [µM]
CCc1ccc(NC2=NCC(c3ccccc3)S2)cc1 (stereo not drawn)	3.03	> 100
Cc1cccc(OCC(=O)NNC(=O)c2cc3ccccc3oc2=O)c1	25.4	> 100
Cc1ccc(C(=O)C2CCN(CC(=O)Nc3nc(C)cs3)CC2)cc1	13.6	25.2
O=Cc1ccc(-c2ccc(Cl)cc2Cl)[nH]1	–	> 100
NN(Cc1ccccc1)C(=S)Nc1ccc(Cl)c(Cl)c1	33.8	58.1
CCOC(=O)CNc1ccc(C(=O)OCC)cc1[N+](=O)[O-]	8.45	22.6
COc1cc2c(cc1OC)C1(Nc3c-2c(-c2ccccc2)nn3-c2ccccc2)C(=O)Nc2ccccc21 (stereo not drawn)	90.5	> 100
CCOC(=O)/C(=N/Nc1ccc(OC)cc1)N1CCCc2ccccc21	78.1	> 100
CCCn1c(=N)n(CC(=O)c2ccc(OCC(=O)OC)cc2)c2ccccc21	11.1	43.6
Cc1cc(OC(=O)c2cccs2)c2c3c(c(=O)oc2c1)CCCC3	3.04	3.52
Cc1nonc1OCCNCCNc1ccc([N+](=O)[O-])c2cccnc12	6.68	13.9
O=C1NCC(O)=C1C=Nc1ccccc1O	5.93	6.49
CCOc1ccc(N2CCc3c(C)nc(SC)nc32)cc1	< 0.2	> 100
CC1CCCC(C)N1C(=O)COC(=O)c1cc(-c2cccs2)nn1-c1ccccc1 (stereo not drawn)	24.5	55.6
CCN(CCNCC(O)COc1ccccc1C(C)C)c1cccc(C)c1 (stereo not drawn)	21.1	28.1
COc1ccc(/C=N/Nc2cc(C)nc3ccc(OC)cc23)c(OC)c1	9.39	11.9
Cc1nc2scc(-c3cccs3)c2c(=O)n1-n1cccc1	56.1	> 100
Cn1c(N)c(C(=O)COC(=O)c2ccc([N+](=O)[O-])o2)c(=O)n(C)c1=O	2.81	4.54
CCn1c(NC(=O)c2nn(C)cc2Br)nc2ccccc21	4.39	12.7
COc1ccc(-c2csc(NC(C)c3nc4cc(Cl)c(N5CCCCC5)cc4n3CCCO)n2)cc1 (stereo not drawn)	11.2	12.7
